This note sets out measurements from the METLIN SMRT retention time set (Domingo-Almenara et al. 2019).

This data set in a line: gradient 5% acetonitrile 3 min, to 50% in 2 min, to 85% in 15 min, held 3 min, 100 µL/min. The following applies: column: Zorbax Extend-C18 2.1 x 50 mm; eluents: water / acetonitrile, 0.1% formic acid. In outline: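 In both positive and negative ionization mode, a quadrupole time-of-flight mass spectrometer coupled to HPLC analyzed pure standards run in mixtures of ~100 molecules. The Zorbax Extend-C18 column (2.1 × 50 mm, 1.8 μm) was operated at 100 μL/min with water and acetonitrile, each containing 0.1% formic acid. The dead volume was 40 μL and the dwell volume 900 μL. Retention time came from adduct peaks that were computationally picked and individually inspected by hand.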
In turn, `CCOC(=O)c1cccc(NC(=O)Cc2csc3nc(-c4ccc(OC)c(OC)c4)cn23)c1` yielded an RP-LC retention time of 761 s. Regarding `Cc1nc(N2CCOCC2)c2c(C(=O)Nc3ccc(C)c(C)c3)c(C)oc2n1`, the RP-LC retention time worked out at 882 s. For `CCc1nc2cc(-c3noc(-c4ccc(NC(C)=O)cc4)n3)ccc2o1` the value was 925 s; for `COc1ccc(C(C)NC(=O)c2nnc(-c3ccc(S(=O)(=O)N(C)C)cc3)o2)cc1` (stereo unspecified), 893 s; for `CCOC(=O)c1ccc(NC(=O)Cn2c(=O)cc(-c3nc(C)no3)c3ccccc32)cc1`, 903 s.

Take `Cc1ccc(C)c(S(=O)(=O)Nc2ccc(C(=O)Nc3ccccc3F)cc2)c1`: the RP-LC retention time is 863 s. For `O=C(Nc1ncccn1)c1ccc(Cl)c(S(=O)(=O)N2CCOCC2)c1` the value was 611 s; for `CC(C)n1c(N2CCCN(C(=O)c3ccc(F)c(F)c3)CC2)cc(=O)n(C(C)C)c1=O`, 859 s; for `Cc1ccc(C)n1-c1nnc(N2CCCC(C(=O)NC3CC3)C2)s1` (stereo unspecified), 780 s. The same measure for `COCCCNC(=O)c1cc(-c2ccc(OC)cc2)nc2n[nH]c(-c3ccc(OC)cc3)c12`: 1140 s; for `COc1cc(Br)cc2c1OC1(C)CC2NC(=O)N1c1cccc(C(=O)O)c1` (stereo unspecified): 672 s. For `COc1ccc(N2CCN(c3cc(SCC(=O)Nc4ccccc4Cl)ncn3)CC2)cc1` the value was 1110 s; for `COc1ccc2c(CCNC(=O)c3ccc4c(c3)OCCO4)c[nH]c2c1`, 684 s; for `O=C(CCc1nc(-c2ccc(N3CCCC3)cc2)no1)N1CCC2(CC1)OCCO2`, 945 s. Consider `COc1ccc(CCN2CC(=O)N(c3cccc(C)c3)[C@@H]3CS(=O)(=O)C[C@@H]32)cc1`, for which the RP-LC retention time was found to be 830 s. In turn, `COc1cc(N2C=C(C(=O)N3CCCCC3)S(=O)(=O)c3ccccc32)cc(OC)c1OC` returned an RP-LC retention time of 812 s. The same measure for `O=C(CN1C(=O)C(C(=O)N2CCCCCC2)Sc2ccccc21)N1CCN(c2ncccn2)CC1` (stereo unspecified): 784 s. For `CCc1noc(NC(C)=O)c1-c1ccc(C)c(S(=O)(=O)Nc2ccccc2F)c1` the value was 798 s; for `CCc1nncn1C1CCN(S(=O)(=O)c2ccc(F)c(Cl)c2)CC1`, 734 s. In turn, `O=C(CC(c1cccs1)N1Cc2ccccc2C1=O)N1CCN(c2ccccn2)CC1` (stereo unspecified) yielded an RP-LC retention time of 632 s. The same measure for `O=C(c1noc2c1CCCC2)N1CCc2ccccc2C1`: 923 s; for `CCC(=O)N1CCc2cc(C(=O)N3CCN(c4ccc(C(C)=O)cc4)CC3)ccc21`: 736 s. For `CCC(CO)NCC(O)COCc1ccc(Cl)cc1` (stereo unspecified) the value was 552 s; for `CCOc1ccc(OCC)c(NS(=O)(=O)c2cc(-c3c(C)noc3NC(C)=O)ccc2OC)c1`, 864 s; for `CCCCc1ccc(NC(=O)Cn2cccc2-c2nc(-c3ccc4c(c3)OCO4)no2)cc1`, 1260 s.

`Cc1noc2ncn(CC(=O)Nc3c(F)c(F)cc(F)c3F)c(=O)c12` gave an RP-LC retention time of 759 s.

The compound `O=C(Nc1ccccc1F)c1c(O)c2cccnc2n(-c2cccc(F)c2)c1=O` displayed an RP-LC retention time of 1250 s. The same measure for `CNC(=O)c1c(C)c(-c2ccccc2)n(C)c1C`: 812 s; for `CC(=O)N1CCCSc2ccc(S(=O)(=O)N3CCN(c4cc(C)ccc4C)CC3)cc21`: 1130 s; for `O=C(Cn1cc(-c2ccccc2)c2ncnc(N3CCOCC3)c21)NC1CCCCC1`: 753 s.

Take `CCOC(=O)C1CCN(C(=O)C2c3ccccc3C(=O)N3CCc4cc(OC)c(OC)cc4C23)CC1` (stereo unspecified): the RP-LC retention time turned out to be 766 s.
